Measured values reported in patent publication US10562893B2, “Benzimidazoles derivatives as Tec kinases family inhibitors” (GB005, Inc., priority 2015, dated 2020).

Legend:
ITK = ITK (Homo sapiens (Human), UniProt Q08881); assay: ITK kinase inhibition assay; assay type: biochemical; settings: micro-fluidic detection, 3 hours at 25° C.
Description: (§1) The in vitro kinase assays were performed at Nanosyn utilizing micro-fluidic detection technology. The test compounds were serially pre-diluted in DMSO and added, by the acoustic dispensing (Labcyte® 550), directly to 384 well assay plates into 10 uL of a buffer with enzyme comprising: 100 mM HEPES, pH7.5, 5 mM MgCl2, 0.1% bovine serum albumin, 1 mM DTT, 0.01% Triton X-100 and the enzyme. Final DMSO concentration was maintained at 1% in all samples, including the controls. The reactions were initiated by addition of ATP (to the specified concentration) and the fluorescently labeled peptide substrate to a final concentration of 1 uM, and incubated for 3 hours at 25° C. Following incubation, the reactions were quenched by addition of 40 μL of termination buffer (100 mM HEPES, pH7.5, 0.01% Triton X-100, 50 mM EDTA). Terminated plates were analyzed using Caliper LabChip® 3000 microfluidic electrophoresis instrument (Caliper Life Sciences/Perkin Elmer). The enzymatic modification of the peptide substrate (phosphorylation) results in a change of net charge enabling electrophoretic separation of product from substrate. As substrate and product are separated by electrophoresis, two peaks of fluorescence are observed. Change in the relative fluorescence intensity of the substrate and product peaks was the parameter measured, reflecting enzyme activity. In the presence of inhibitor, the ratio between product and substrate is altered: signal of the product decreases, while the signal of the substrate increases. Activity in each test sample was determined as the product to sum ratio (PSR):P/(S+P), where P is the peak height of the product and S is the peak height of the FAM-cAMP substrate. For each compound, enzyme activity was measured at 12 concentrations spaced by 3× dilution intervals. Negative control samples (0%-inhibition in the absence of inhibitor, DMSO only) and positive control samples (100%-inhibition, in the absence of enzyme or in the presence of control inhibitor) were assembled in replicates of four and were used to calculate %-inhibition values in the presence of compounds. Percent inhibition (Pinh) was determined using the following equation: Pinh=(PSR0%−PSRinh)/(PSR0%−PSR100%)*100, where PSRinh is the product sum ratio in the presence of inhibitor, PSR0% is the product sum ratio in the absence of inhibitor and PSR100% is the product sum ratio in 100%-inhibition control samples. To determine IC50 values, the inhibition curves (Pinh versus inhibitor concentration) were fitted by 4 parameter sigmoid dose-response model using XLfit software (IDBS).

RLK/TXK = RLK/TXK (Homo sapiens (Human), UniProt P42681); assay: RLK/TXK kinase inhibition assay; assay type: biochemical; settings: micro-fluidic detection, 3 hours at 25° C.
Sequence of RLK/TXK (P42681 whole entry): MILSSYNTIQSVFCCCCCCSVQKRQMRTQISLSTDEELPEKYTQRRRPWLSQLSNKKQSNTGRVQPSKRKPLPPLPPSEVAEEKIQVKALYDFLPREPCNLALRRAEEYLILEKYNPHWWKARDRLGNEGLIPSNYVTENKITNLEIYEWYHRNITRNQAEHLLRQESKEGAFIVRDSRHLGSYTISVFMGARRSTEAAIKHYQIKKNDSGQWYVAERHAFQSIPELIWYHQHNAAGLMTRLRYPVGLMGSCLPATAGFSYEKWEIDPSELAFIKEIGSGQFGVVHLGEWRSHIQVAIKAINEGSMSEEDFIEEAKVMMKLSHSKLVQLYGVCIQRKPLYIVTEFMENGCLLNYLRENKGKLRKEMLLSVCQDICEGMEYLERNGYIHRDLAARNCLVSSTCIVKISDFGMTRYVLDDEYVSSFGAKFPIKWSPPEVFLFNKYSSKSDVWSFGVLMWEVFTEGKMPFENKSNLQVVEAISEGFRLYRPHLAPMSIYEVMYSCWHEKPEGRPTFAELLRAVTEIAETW
Description: as §1, with “384well” for “384 well”, “(PSR): P/(S+P),” for “(PSR):P/(S+P),”

Human PBMCs = assay: CD3/CD28 mediated PBMC proliferation assay; assay type: cell-based; settings: proliferation of human PBMCs stimulated with anti-CD3 and anti-CD28, 72 hours, Cell Titer-Glo
Description: Inhibition of cellular ITK was assessed by measuring proliferation of PBMCs following stimulation with anti-CD3 and anti-CD28 antibodies. Individual wells of 96 well tissue culture plates were coated with 50 μL of 5 μg/mL anti-CD3 (OKT3, eBiosciences) for 2 hours at 37° C. Human PBMCs (Stemcell Technologies catalog #70025.3) were plated in 96-well plates at a final concentration of 9.2×10e5 cells/mL in complete media (RPMI, 10% heat inactivated FBS, 55 uM β-mercaptoethanol) and pre-treated with compound curves for 30 minutes at 37° C., 5% CO2. Pre-treated cells plus compounds were transferred to washed anti-CD3 coated plates. Soluble anti-CD28 (CD28.2 eBiosciences) was added to each well at a final concentration of 2 μg/mL. The cells were placed in a humidified 37° C. incubator with 5% CO2 for 72 hours and metabolic viability was measured by quantification of ATP levels with Cell Titer-Glo (Promega catalog # G9242). Controls included unstimulated cells and vehicle alone. EC50 values (50% proliferation in the presence of compound as compared to vehicle treated controls) were calculated from dose response compound curves using GraphPad Prism Software.

[1] = test system: Jurkat human acute T cell leukemia cells; assay: Jurkat IL-2 release assay; assay type: cell-based; settings: IL-2 release from Jurkat cells stimulated with anti-CD3 and anti-CD28, 48 hours, ELISA
Description: Inhibition of cellular ITK was assessed by measuring release of IL-2 following stimulation with anti-CD3 and anti-CD28 antibodies. Individual wells of 96 well tissue culture plates were coated with 50 μL of 10 μg/mL anti-CD3 (OKT3, eBiosciences) for 2 hours at 37° C. Jurkat human acute T cell leukemia cells (ATCC) were plated in 96-well plates at a final concentration of 9.2×10e5 cells/mL in complete media (RPMI, 10% FBS, 1.5 g/L sodium bicarbonate, 10 mM Hepes, 1 mM sodium pyruvate, 4.5 g/L glucose) and pre-treated with compound curves for 30 minutes at 37° C., 5% CO2. Pre-treated cells plus compounds were transferred to washed anti-CD3 coated plates. Soluble anti-CD28 (CD28.2 eBiosciences) was added to each well at a final concentration of 1 μg/mL. The cells were placed in a humidified 37° C. incubator with 5% CO2 for 48 hours and IL-2 release was measured using a commercial ELISA (BD Bioscience catalog #555190). Controls included unstimulated cells and vehicle alone. EC50 values (50% IL-2 release in the presence of compound as compared to vehicle treated controls) were calculated from dose response compound curves using GraphPad Prism Software.

Sequence of ITK (Q08881 whole entry): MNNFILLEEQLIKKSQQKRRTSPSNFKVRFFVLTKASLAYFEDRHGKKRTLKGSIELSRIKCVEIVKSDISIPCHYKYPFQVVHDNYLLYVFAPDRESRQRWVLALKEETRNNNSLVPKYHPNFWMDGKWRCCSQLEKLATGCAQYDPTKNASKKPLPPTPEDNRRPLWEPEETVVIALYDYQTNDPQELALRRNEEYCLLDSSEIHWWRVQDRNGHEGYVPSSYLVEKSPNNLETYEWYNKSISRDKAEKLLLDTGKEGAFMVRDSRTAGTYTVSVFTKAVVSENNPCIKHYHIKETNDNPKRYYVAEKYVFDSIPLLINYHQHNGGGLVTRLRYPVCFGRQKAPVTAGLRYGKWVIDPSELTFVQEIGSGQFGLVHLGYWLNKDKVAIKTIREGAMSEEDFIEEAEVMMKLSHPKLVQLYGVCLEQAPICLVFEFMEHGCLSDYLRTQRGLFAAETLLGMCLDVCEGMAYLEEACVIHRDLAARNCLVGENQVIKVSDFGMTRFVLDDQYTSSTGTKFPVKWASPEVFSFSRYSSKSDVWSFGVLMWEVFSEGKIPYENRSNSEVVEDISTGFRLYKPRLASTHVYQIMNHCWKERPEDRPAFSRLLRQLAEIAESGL

EC50 (ITK) [nM]	EC50 (RLK/TXK) [nM]	EC50 [1] [nM]	Compound	EC50 (Human PBMCs) [nM]
< 10	< 10	< 10	C=CC(=O)Nc1cccc(-n2c(NC(=O)c3ccc(C(F)F)s3)nc3cc(CN4CCOCC4)ccc32)c1 [Compound 50]	< 10
< 10	10 to 100	10 to 100	C=CC(=O)N[C@H]1CC[C@@H](n2c(NC(=O)c3ccc(C(F)F)s3)nc3cc(CN[C@@H](C)C(C)(C)C)ccc32)C1 [Compound 62]	> 100
< 10	< 10	< 10	C=CC(=O)Nc1cccc(-n2c(NC(=O)c3ccc(C(F)F)s3)nc3cc(N(C)C(=O)[C@H](C)N4CCOCC4)ccc32)c1 [Compound 77]	10 to 100
< 10	10 to 100	< 10	C=CC(=O)N[C@@H]1CCC[C@H](n2c(NC(=O)c3ccc(C(F)F)s3)nc3cc(CN[C@@H](C)C(C)(C)C)ccc32)C1 [Compound 81]	10 to 100
